Test results as given in DBAASP.
Values after ≈ are worked out from the molar mass of the structure shown. Each block holds one molecule with its values, some of them ahead of it.

How the values were obtained:
Experiment in all cases: ≥ marks a high value that may be exact or a test limit, other limits are often not marked, values filed in µg/mL are converted to µM
[1] = tested on: Candida albicans IHEM 8060
Candida glabrata = tested on: Candida glabrata
[2] = tested on: Bacillus licheniformis X39
[3] = tested on: Psychrobacter faecalis X29
[4] = tested on: Rhodococcus rhodochrous X15
[5] = tested on: Staphylococcus aureus ATCC 2592
[6] = tested on: Staphylococcus carnosus KHS
[7] = tested on: Bacillus subtilis IFO 3336
[8] = tested on: Escherichia coli IFO 3301
Escherichia coli O157:H7 = tested on: Escherichia coli O157:H7
[9] = tested on: Staphylococcus aureus 1056

- MIC [1]: 17.3 µM (≈ 63.9 µg/mL)
- MIC (Candida glabrata): 17.3 µM (≈ 63.9 µg/mL)
Compound: CC[C@H](C)[C@@H]1NC(=O)[C@@H](N)CSSC[C@@H]2NC(=O)[C@@H]3CSSC[C@@H](C(=O)N[C@@H](CCCN=C(N)N)C(=O)O)NC(=O)[C@H](Cc4ccc(O)cc4)NC(=O)CNC(=O)[C@H](C)NC(=O)[C@H](C(C)C)NC(=O)[C@H](Cc4c[nH]c5ccccc45)NC(=O)CNC(=O)[C@@H]4CCCN4C(=O)[C@H](CCC(=O)O)NC(=O)[C@H](CCCCN)NC(=O)[C@H](Cc4cnc[nH]4)NC(=O)[C@H](CSSC[C@H](NC(=O)CNC(=O)[C@H](CC(N)=O)NC(=O)CNC(=O)[C@H](CC(N)=O)NC(=O)[C@H](CCCCN)NC1=O)C(=O)N[C@@H](CCC(N)=O)C(=O)N1CCC[C@H]1C(=O)N[C@@H](CC(=O)O)C(=O)NCC(=O)N[C@@H](CO)C(=O)N[C@@H](CCC(N)=O)C(=O)NCC(=O)N[C@@H](CC(N)=O)C(=O)N3)NC(=O)[C@H](Cc1ccc(O)cc1)NC(=O)[C@H](CCCN=C(N)N)NC(=O)[C@H](CO)NC2=O [CIKNGNGCQPDGSQGNCCSRYCHKEPGWVAGYCR]

- MIC [2]: 9.8 µM (≈ 25 µg/mL)
- MIC [3]: 4.9 µM (≈ 12.5 µg/mL)
- MIC [4]: 1.22 µM (≈ 3.1 µg/mL)
- MIC [5]: 1.22 µM (≈ 3.1 µg/mL)
- MIC [6]: 4.9 µM (≈ 12.5 µg/mL)
Compound: CC[C@H](C)[C@@H]1NC(=O)[C@H](CCCCN)NC(=O)[C@@H](NC(=O)[C@H](Cc2ccccc2)NC(=O)[C@H](CC(C)C)NC(=O)[C@@H](NC(=O)[C@@H]2CCCN2C(=O)[C@@H](NC(=O)[C@@H](NC(=O)[C@H](CCCCN)NC(=O)CNC(=O)[C@@H](NC(=O)[C@H](CC(C)C)NC(=O)CNC(=O)[C@H](CC(C)C)NC(=O)[C@H](CC(C)C)NC(=O)[C@H](CO)NC(=O)CNC(=O)[C@H](CC(C)C)NC(=O)[C@@H](N)Cc2ccccc2)C(C)C)C(C)C)C(C)C)[C@@H](C)O)CSSC[C@@H](C(=O)O)NC(=O)[C@H](CCCCN)NC(=O)[C@H](CCCCN)NC(=O)[C@H](CO)NC1=O [FLGSLLGLVGKVVPTLFCKISKKC]

- MIC [7]: 7.61 µM (≈ 10 µg/mL)
- MIC [8]: 15.2 µM (≈ 20 µg/mL)
Compound: NC(N)=NCCC[C@H](NC(=O)[C@H](CS)NC(=O)[C@H](CCCN=C(N)N)NC(=O)[C@H](CS)NC(=O)[C@H](CCCN=C(N)N)NC(=O)[C@H](CS)NC(=O)[C@H](CCCN=C(N)N)NC(=O)[C@H](CS)NC(=O)[C@@H](N)CCCN=C(N)N)C(=O)N[C@@H](CS)C(=O)O [RCRCRCRCRC]

- MIC (Escherichia coli O157:H7): 0.321 µM (≈ 1.29 µg/mL)
- MIC [9]: 0.291 µM (≈ 1.17 µg/mL)
Compound: CC(C)C[C@@H]1NC(=O)[C@H](Cc2cnc[nH]2)NC(=O)[C@H](C)NC(=O)[C@@H]2CCCN2C(=O)[C@@H]2CSSC[C@@H](C(=O)N[C@@H](CCCCN)C(=O)N[C@@H](Cc3c[nH]c4ccccc34)C(=O)N3CCC[C@H]3C(=O)N[C@@H](Cc3c[nH]c4ccccc34)C(=O)N[C@@H](CC(=O)O)C(=O)N[C@H](C(=O)O)C(C)C)NC(=O)[C@@H]3CSSC[C@H](NC(=O)[C@H](Cc4ccccc4)NC(=O)[C@@H](N)CC(C)C)C(=O)N[C@@H](CCCN=C(N)N)C(=O)N[C@@H](CCCCN)C(=O)NCC(=O)N[C@@H]([C@@H](C)O)C(=O)N[C@@H](CSSC[C@H](NC(=O)[C@H](CO)NC(=O)CNC(=O)[C@H](C(C)C)NC(=O)[C@H](CCCCN)NC(=O)[C@H](C(C)C)NC1=O)C(=O)N[C@@H](Cc1ccccc1)C(=O)NCC(=O)N[C@@H](Cc1ccccc1)C(=O)N[C@@H](CCCN=C(N)N)C(=O)N[C@@H](C)C(=O)N3)C(=O)N[C@@H](Cc1cnc[nH]1)C(=O)N[C@@H](Cc1ccccc1)C(=O)NCC(=O)NCC(=O)N2 [LFCRKGTCHFGGCPAHLVKVGSCFGFRACCKWPWDV]
